Source: patent publication US20230110351A1, “METHODS FOR TREATING PARKINSON'S DISEASE WITH SEPIAPTERIN” (PTC Therapeutics MP, Inc., priority 2020, published 2023)
Where two headings read alike, the source gives them in different places.

How the values were obtained:
[1] = Pharmacokinetic parameters for BH4 after single dose of sepiapterin or BH4 in fasted subjects; type: in vivo
Procedure: Six subjects received sepiapterin in each group and three subjects received BH4 in each group where this treatment was administered.
Values shown are means of plasma concentrations of BH4 following administration at the doses shown.

[2] = Pharmacokinetic analysis of multiple doses of sepiapterin (once daily, 7 days, fed subjects); type: in vivo
From the text: Methods: Three cohorts of eight fed subjects each were randomized to receive once-daily sepiapterin or placebo for 7 days in a 6:2 ratio. A sentinel dose strategy was also used for administration of the highest sepiapterin dose.

[3] = CSF levels of sepiapterin, BH4, BH2, HVA and 5-HIAA after administration of sepiapterin; type: in vivo
Procedure: The cerebrospinal fluid (CSF) of selected subjects was collected via lumbar puncture on Day1 (before dose) and on Day 7 (i.e., following daily dosing for 7 days) approximately 30 minutes from time of the maximum observed plasma BH4 concentration (Tmax) as determined from the blood analysis. The cerebral spinal fluid (CSF) was analyzed. Descriptive statistics are provided to characterize any changes in neurotransmitter metabolism between the Day 1, and Day 7 sample results. Method: Analyses were conducted in CSF samples of subjects administered 60 mg/kg sepiapterin or placebo. The following analytes were measured: sepiapterin, BH4, BH2, homovanillic acid (HVA), and 5-hydroxyindoleacetic acid (HIAA). Descriptive (n, mean, SD, median, minimum, maximum) statistics for these analytes at Day 1 and Day 7+/−30 minutes from Tmax and change from baseline at Day 7 were determined for each analyte.

[4] = type: in vivo
Procedure: Method: Twelve subjects were given a single dose (10 mg/kg) of sepiapterin under fasting conditions and then 7 days later under fed conditions. Standard definitions of adverse events (AE) were used. All-cause AE were those that occurred at any time; treatment-emergent adverse events (TEAE) were those that occurred at or after the time of administration of study treatment. TEAEs related to study drug were based on the opinion of the investigator. Serious AE were defined as life threatening or caused death, hospitalization or prolongation of existing hospitalization, or were a persistent or significant disability/incapacity or a substantial disruption of the ability to conduct normal life functions, or a congenital anomaly/birth defect.

[5] = Food effect on administration of sepiapterin: plasma sepiapterin and BH4, fasted vs fed; type: in vivo; details: sepiapterin 10 mg/kg oral
Procedure: Method: Subjects received two oral doses of sepiapterin (10 mg/kg) separated by one week in a fasted and fed state. Subjects were fed a standard high-fat (approximately 50 percent of total caloric content of the meal) and high-calorie (approximately […] calories) meal starting 30 minutes prior to receiving their second oral dose of sepiapterin on Day 8.
Sampling for PK analysis occurred predose on Days 1 and 8 (within 30 minutes before dosing) and 0.5 hr, 1 hr, 2 hr, 4 hr, 8 hr, 12 hr, and 24 hr after the doses on Days 1 and 8. The blood concentrations of sepiapterin and BH4 were analyzed by MNG Labs.

[6] = human, plasma, po, 5 mg/kg, sepiapterin 5 mg/kg once daily, Day 1
[7] = human, plasma, po, 5 mg/kg, sepiapterin 5 mg/kg once daily, Day 7
[8] = human, plasma, po, 20 mg/kg, sepiapterin 20 mg/kg once daily, Day 1
[9] = human, plasma, po, 20 mg/kg, sepiapterin 20 mg/kg once daily, Day 7
[10] = human, plasma, po, 60 mg/kg, sepiapterin 60 mg/kg once daily, Day 1
[11] = human, plasma, po, 60 mg/kg, sepiapterin 60 mg/kg once daily, Day 7
[12] = 60 mg/kg sepiapterin arm, Day 1 (before dose)
[13] = 60 mg/kg sepiapterin, Day 7, +/-30 minutes from BH4 Tmax
[14] = 60 mg/kg sepiapterin, Day 7, same subject
[15] = Day 1 pre-dose, one subject with low baseline

With `C[C@H](O)C(=O)C1=Nc2c(nc(N)[nH]c2=O)NC1` [sepiapterin] the “AUC0-24 and AUC0-inf of BH4, subjects administered sepiapterin compared to subjects administered BH4” value [1] was “much higher”, the Cmax [2, 6] was 0.6 ng/mL and the Tmax [2, 6] was 3 h. It also gave an AUC(0-inf) ([2]; human, plasma, po, 5 mg/kg, sepiapterin 5 mg/kg once daily, Day 1, read-out: AUC0-inf of sepiapterin) of 1 ng·h/mL, a Cmax [2, 7] of 0.6 ng/mL and a Tmax [2, 7] of 3 h. The AUC(0-inf) ([2]; human, plasma, po, 5 mg/kg, sepiapterin 5 mg/kg once daily, Day 7, read-out: AUC0-inf of sepiapterin) was 0.7 ng·h/mL, the Cmax [2, 8] was 1.2 ng/mL and the Tmax [2, 8] was 2.6 h. The AUC(0-inf) ([2]; human, plasma, po, 20 mg/kg, sepiapterin 20 mg/kg once daily, Day 1, read-out: AUC0-inf of sepiapterin) was 3.9 ng·h/mL, the Cmax [2, 9] was 1.3 ng/mL and the Tmax [2, 9] was 2.7 h. For the same molecule, the AUC(0-inf) ([2]; human, plasma, po, 20 mg/kg, sepiapterin 20 mg/kg once daily, Day 7, read-out: AUC0-inf of sepiapterin) was 4.3 ng·h/mL, the Cmax [2, 10] was 2.7 ng/mL and the Tmax [2, 10] was 3.3 h. The AUC(0-inf) ([2]; human, plasma, po, 60 mg/kg, sepiapterin 60 mg/kg once daily, Day 1, read-out: AUC0-inf of sepiapterin) was 21.2 ng·h/mL, the Cmax [2, 11] was 2.8 ng/mL and the Tmax [2, 11] was 3 h. For the same molecule, the AUC(0-inf) ([2]; human, plasma, po, 60 mg/kg, sepiapterin 60 mg/kg once daily, Day 7, read-out: AUC0-inf of sepiapterin) was 16 ng·h/mL, the AUC(0-t) ([2]; human, plasma, po, sepiapterin 60 mg/kg once daily, Day 1, read-out: AUC0-24 of sepiapterin) was 23 ng·h/mL and the “Drug accumulation (plasma sepiapterin and BH4 after 1 and 7 days of treatment)” value ([2]; once daily for 7 days) was “no drug accumulation”. For the same molecule, the “5-HIAA Mean Concentration in CSF” value [3, 12] was 14.6 ng/mL, the “HVA Mean Concentration in CSF” value [3, 12] was 32.3 ng/mL and the “Sepiapterin Mean Concentration in CSF” value [3, 12] was 0 ng/mL. The “Sepiapterin in the CSF” value ([3]; 60 mg/kg sepiapterin, Day 1 or Day 7 +/-30 minutes from BH4 Tmax) was “not detected”, the “Change in CSF concentration of 5-HIAA relative to Day 1” value ([3]; 60 mg/kg sepiapterin, Day 7) was -1.142 ng/mL and the “5-HIAA Mean Concentration in CSF” value [3, 13] was 13.4 ng/mL. The “HVA Mean Concentration in CSF” value [3, 13] was 33.7 ng/mL, the “Sepiapterin Mean Concentration in CSF” value [3, 13] was 0 ng/mL and the “Change in CSF concentration of HVA relative to Day 1” value ([3]; 60 mg/kg sepiapterin, Day 7, increase) was 1.378 ng/mL. For the same molecule, the “CSF 5-HIAA concentration, one subject” value [3, 14] was 9.53 ng/mL, the “CSF HVA concentration, one subject” value [3, 14] was 29.93 ng/mL and the “CSF 5-HIAA concentration, one subject” value [3, 15] was 3.69 ng/mL. For the same molecule, the “CSF HVA concentration, one subject” value [3, 15] was 10.02 ng/mL, the TEAE ([4]; human, in vivo, 10 mg/kg) was 4 and the “TEAE related to study drug” value ([4]; human, in vivo, 10 mg/kg) was 1. The “≥1 AE” value ([4]; human, in vivo, 10 mg/kg) was 5, the “Incidence of adverse events, fed compared to fasted subjects” value ([4]; single dose 10 mg/kg) was “decreased incidence of adverse events” and the concentration at 0 h ([5]; human, plasma, fasted, 0 h (predose), read-out: Sepiapterin Concentration in Plasma, Maximum) was 0 µM. It also gave a concentration at 0.5 h ([5]; human, plasma, fasted, 0.5 h, read-out: Sepiapterin Concentration in Plasma, Minimum) of 0 µM, a concentration at 4 h ([5]; human, plasma, fasted, 4 h, read-out: Sepiapterin Concentration in Plasma, Minimum) of 0 µM and a concentration at 8 h ([5]; human, plasma, fasted, 8 h, read-out: Sepiapterin Concentration in Plasma, Maximum) of 0 µM. The concentration at 12 h ([5]; human, plasma, fasted, 12 h, read-out: Sepiapterin Concentration in Plasma, Maximum) was 0 µM, the concentration at 24 h ([5]; human, plasma, fasted, 24 h, read-out: Sepiapterin Concentration in Plasma, Maximum) was 0 µM and the concentration at 1 h ([5]; human, plasma, fed, 1 h, read-out: Sepiapterin Concentration in Plasma, Minimum) was 0 µM. For the same molecule, the concentration at 2 h ([5]; human, plasma, fed, 2 h, read-out: Sepiapterin Concentration in Plasma, Minimum) was 0 µM, the “Cmax of BH4 in the plasma, fed compared to fasted” value [5] was “much higher” and the “Cmax of sepiapterin in the plasma, fed compared to fasted” value [5] was “much lower”. The “Geometric mean ratio (fasted/fed, 90% CI) for plasma sepiapterin AUClast” value [5] was 1.29 (0.84 to 2.00), the “Geometric mean ratio (fasted/fed, 90% CI) for plasma sepiapterin Cmax” value [5] was 1.57 (1.21 to 2.0) and the “Sepiapterin Concentration in Plasma, Mean” value ([5]; fasted, 0 h (predose)) was 0 nM. For the same molecule, the “Sepiapterin Concentration in Plasma, Median” value ([5]; fasted, 0 h (predose)) was 0 nM, the concentration at 2 h ([5]; fasted, 0 h (predose), read-out: Sepiapterin Concentration in Plasma, Minimum) was 0 µM and the “Sepiapterin Concentration in Plasma, Mean” value ([5]; fasted, 8 h) was 0 nM. For the same molecule, the “Sepiapterin Concentration in Plasma, Median” value ([5]; fasted, 8 h) was 0 nM, the concentration at 2 h ([5]; fasted, 8 h, read-out: Sepiapterin Concentration in Plasma, Minimum) was 0 µM and the “Sepiapterin Concentration in Plasma, Mean” value ([5]; fasted, 12 h) was 0 nM. The “Sepiapterin Concentration in Plasma, Median” value ([5]; fasted, 12 h) was 0 nM, the concentration at 2 h ([5]; fasted, 12 h, read-out: Sepiapterin Concentration in Plasma, Minimum) was 0 µM and the “Sepiapterin Concentration in Plasma, Mean” value ([5]; fasted, 24 h) was 0 nM. The “Sepiapterin Concentration in Plasma, Median” value ([5]; fasted, 24 h) was 0 nM, the concentration at 2 h ([5]; fasted, 24 h, read-out: Sepiapterin Concentration in Plasma, Minimum) was 0 µM and the “Sepiapterin Concentration in Plasma, Mean” value ([5]; fed, 0 h (predose)) was 0 nM. The “Sepiapterin Concentration in Plasma, Median” value ([5]; fed, 0 h (predose)) was 0 nM, the concentration at 24 h ([5]; fed, 0 h (predose), read-out: Sepiapterin Concentration in Plasma, Maximum) was 0 µM and the concentration at 2 h ([5]; fed, 0 h (predose), read-out: Sepiapterin Concentration in Plasma, Minimum) was 0 µM. For the same molecule, the “Sepiapterin Concentration in Plasma, Median” value ([5]; fed, 0.5 h) was 0 nM, the concentration at 2 h ([5]; fed, 0.5 h, read-out: Sepiapterin Concentration in Plasma, Minimum) was 0 µM and the concentration at 2 h ([5]; fed, 4 h, read-out: Sepiapterin Concentration in Plasma, Minimum) was 0 µM. The “Sepiapterin Concentration in Plasma, Median” value ([5]; fed, 8 h) was 0 nM, the concentration at 2 h ([5]; fed, 8 h, read-out: Sepiapterin Concentration in Plasma, Minimum) was 0 µM and the “Sepiapterin Concentration in Plasma, Mean” value ([5]; fed, 12 h) was 0 nM. For the same molecule, the “Sepiapterin Concentration in Plasma, Median” value ([5]; fed, 12 h) was 0 nM, the concentration at 24 h ([5]; fed, 12 h, read-out: Sepiapterin Concentration in Plasma, Maximum) was 0 µM and the concentration at 2 h ([5]; fed, 12 h, read-out: Sepiapterin Concentration in Plasma, Minimum) was 0 µM. For the same molecule, the “Sepiapterin Concentration in Plasma, Mean” value ([5]; fed, 24 h) was 0 nM, the “Sepiapterin Concentration in Plasma, Median” value ([5]; fed, 24 h) was 0 nM and the concentration at 24 h ([5]; fed, 24 h, read-out: Sepiapterin Concentration in Plasma, Maximum) was 0 µM. For the same molecule, the concentration at 2 h ([5]; fed, 24 h, read-out: Sepiapterin Concentration in Plasma, Minimum) was 0 µM.
